Reference: ChEMBL document CHEMBL4811304, “Design, synthesis and biological evaluation of dual mTOR/HDAC6 inhibitors in MDA-MB-231 cells” (Bioorg Med Chem Lett, 2021)
The source made the active and inactive calls. No cut-off for these calls is given here.

Legend:
[1] = biological target: T1, Serine/threonine-protein kinase mTOR (Homo sapiens, UniProt P42345); assay: Inhibition of mTOR (unknown origin)
[2] = biological target: T2, Protein deacetylase HDAC6 (Homo sapiens, UniProt Q9UBN7); assay: Inhibition of HDAC6 (unknown origin)
T2 sequence (Q9UBN7 whole entry): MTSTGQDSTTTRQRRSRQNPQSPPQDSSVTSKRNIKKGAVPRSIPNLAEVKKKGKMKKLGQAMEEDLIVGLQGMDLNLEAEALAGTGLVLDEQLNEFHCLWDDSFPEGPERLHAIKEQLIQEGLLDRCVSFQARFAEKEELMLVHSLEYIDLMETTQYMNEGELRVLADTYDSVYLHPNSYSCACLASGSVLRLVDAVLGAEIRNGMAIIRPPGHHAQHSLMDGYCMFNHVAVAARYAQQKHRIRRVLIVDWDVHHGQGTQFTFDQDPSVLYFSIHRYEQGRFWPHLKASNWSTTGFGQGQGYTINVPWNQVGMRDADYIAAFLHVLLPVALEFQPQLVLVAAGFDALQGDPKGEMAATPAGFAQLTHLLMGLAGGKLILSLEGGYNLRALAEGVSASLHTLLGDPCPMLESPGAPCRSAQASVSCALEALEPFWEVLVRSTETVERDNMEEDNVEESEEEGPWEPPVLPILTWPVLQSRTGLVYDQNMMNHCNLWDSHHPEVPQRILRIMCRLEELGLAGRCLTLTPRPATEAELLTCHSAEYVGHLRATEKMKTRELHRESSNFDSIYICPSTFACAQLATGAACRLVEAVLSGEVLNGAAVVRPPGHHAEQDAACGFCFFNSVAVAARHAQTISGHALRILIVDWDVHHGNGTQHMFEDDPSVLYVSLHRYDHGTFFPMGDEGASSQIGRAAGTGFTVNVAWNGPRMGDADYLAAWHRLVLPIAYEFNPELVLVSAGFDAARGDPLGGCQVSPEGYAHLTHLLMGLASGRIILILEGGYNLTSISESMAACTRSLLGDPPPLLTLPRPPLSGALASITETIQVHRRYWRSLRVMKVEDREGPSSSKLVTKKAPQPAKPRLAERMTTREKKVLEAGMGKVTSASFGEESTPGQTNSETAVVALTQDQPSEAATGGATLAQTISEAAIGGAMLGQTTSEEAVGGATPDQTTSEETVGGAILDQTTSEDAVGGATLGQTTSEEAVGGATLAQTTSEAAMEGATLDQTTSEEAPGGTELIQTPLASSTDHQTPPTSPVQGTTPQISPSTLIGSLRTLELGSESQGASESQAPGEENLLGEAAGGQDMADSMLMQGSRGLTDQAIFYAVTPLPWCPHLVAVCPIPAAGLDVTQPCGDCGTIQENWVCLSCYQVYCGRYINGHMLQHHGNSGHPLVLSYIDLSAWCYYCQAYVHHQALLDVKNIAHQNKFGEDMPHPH

[3] = biological target: T1, Serine/threonine-protein kinase mTOR; assay: Inhibition of mTOR (unknown origin) at 0.5 uM relative to control
[4] = tested on: MDA-MB-436; assay: Antiproliferative activity against human MDA-MB-436 cells measured after 48 hrs; type: functional, cell-based; conditions: MDA-MB-436, 48 h
[5] = biological target: T3, Histone deacetylase 1 (Homo sapiens, UniProt Q13547); assay: Binding affinity to HDAC1 in human MDA-MB-231 cells assessed as increase in thermal stability at 10 uM measured at 6 hrs by CETSA; type: cell-based
[6] = biological target: T4, Protein deacetylase HDAC6 (Homo sapiens) (UniProt Q9UBN7); assay: Binding affinity to HDAC6 in human MDA-MB-231 cells assessed as increase in thermal stability at 10 uM measured at 6 hrs by CETSA; type: cell-based
T4 sequence (whole entry): T2 sequence (Q9UBN7 whole entry)

[7] = biological target: T3, Histone deacetylase 1; assay: Inhibition of HDAC1 (unknown origin)
[8] = biological target: T4, Protein deacetylase HDAC6 (Homo sapiens); assay: Inhibition of HDAC6 in human MDA-MB-231 cells assessed as accumulation of acetylated tubulin at 5 to 20 uM by Western blot analysis; type: cell-based; conditions: dose 5-20 µM
[9] = tested on: MDA-MB-231; assay: Induction of autophagy in human MDA-MB-231 cells transfected with GFP-LC3 assessed as accumulation of LC3 puncta at 5 to 20 uM after 48 hrs by Western blot analysis; type: functional, cell-based; conditions: dose 5-20 µM
[10] = tested on: MDA-MB-231; assay: Induction of autophagy in human MDA-MB-231 cells transfected with GFP-LC3 assessed as decrease in SQSTM1/p62 expression at 5 to 20 uM after 48 hrs by Western blot analysis; type: functional, cell-based; conditions: dose 5-20 µM
[11] = tested on: MDA-MB-231; assay: Induction of autophagy in human MDA-MB-231 cells transfected with GFP-LC3 assessed as increase in Beclin 1 level at 5 to 20 uM after 48 hrs by Western blot analysis; type: functional, cell-based; conditions: dose 5-20 µM
[12] = tested on: MDA-MB-231; assay: Induction of autophagy in human MDA-MB-231 cells transfected with GFP-LC3 assessed as increase in LC3II level at 5 to 20 uM after 48 hrs by Western blot analysis; type: functional, cell-based; conditions: dose 5-20 µM
[13] = tested on: MDA-MB-231; assay: Induction of apoptosis in human MDA-MB-231 cells by annexin V/propidium iodide staining-based flow cytometry analysis; type: functional, cell-based; conditions: dose 5-20 µM
[14] = tested on: MDA-MB-231; assay: Induction of apoptosis in human MDA-MB-231 cells assessed as live cells at 5 uM by annexin V/propidium iodide staining-based flow cytometry analysis (reference value: 96.7 %); type: functional
[15] = tested on: MDA-MB-231; assay: Induction of apoptosis in human MDA-MB-231 cells assessed as early apoptotic cells at 5 uM by annexin V/propidium iodide staining-based flow cytometry analysis (reference value: 0.69 %); type: functional
[16] = tested on: MDA-MB-231; assay: Induction of apoptosis in human MDA-MB-231 cells assessed as necrotic cells at 5 uM by annexin V/propidium iodide staining-based flow cytometry analysis (reference value: 0.099 %); type: functional
[17] = tested on: MDA-MB-231; assay: Induction of apoptosis in human MDA-MB-231 cells assessed as necrotic cells at 10 uM by annexin V/propidium iodide staining-based flow cytometry analysis (reference value: 0.099 %); type: functional
[18] = tested on: MDA-MB-231; assay: Induction of apoptosis in human MDA-MB-231 cells assessed as early apoptotic cells at 20 uM by annexin V/propidium iodide staining-based flow cytometry analysis (reference value: 0.69 %); type: functional
[19] = tested on: MDA-MB-231; assay: Induction of apoptosis in human MDA-MB-231 cells assessed as necrotic cells at 20 uM by annexin V/propidium iodide staining-based flow cytometry analysis (reference value: 0.099 %); type: functional
[20] = tested on: MDA-MB-231; assay: Induction of apoptosis in human MDA-MB-231 cells assessed as upregulation of BAX at 5 to 20 uM by Western blot analysis; type: functional, cell-based; conditions: dose 5-20 µM

T3 sequence (Q13547 whole entry): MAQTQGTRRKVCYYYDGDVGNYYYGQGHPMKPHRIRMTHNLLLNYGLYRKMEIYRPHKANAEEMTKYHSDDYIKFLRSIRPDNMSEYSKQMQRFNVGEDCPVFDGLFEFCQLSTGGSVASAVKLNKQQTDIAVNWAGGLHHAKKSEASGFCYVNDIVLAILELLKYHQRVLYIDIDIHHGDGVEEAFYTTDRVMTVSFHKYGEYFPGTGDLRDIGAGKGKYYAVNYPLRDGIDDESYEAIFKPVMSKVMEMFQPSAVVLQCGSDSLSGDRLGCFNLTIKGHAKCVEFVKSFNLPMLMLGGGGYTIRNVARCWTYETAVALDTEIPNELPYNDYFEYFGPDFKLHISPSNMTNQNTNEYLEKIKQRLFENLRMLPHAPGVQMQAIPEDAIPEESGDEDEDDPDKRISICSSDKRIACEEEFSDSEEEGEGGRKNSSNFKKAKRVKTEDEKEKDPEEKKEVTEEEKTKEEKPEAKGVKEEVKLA

CN1CCN(c2nc(-c3ccc(C(=O)NO)cc3)nc3cc(Cl)ccc23)CC1
IC50 [1]: 134 nM | IC50 [2]: 56 nM | inhibition [3]: 91.4% | IC50 [4]: 10600 nM | Activity [5]: inactive | Activity [6]: Active | IC50 [7]: 359 nM | inhibition [8]: Active | Activity [9]: Active | Activity [10]: Active | Activity [11]: Active | Activity [12]: Active | Activity [13]: Dose-Dependent Effect | Activity [14]: 88.1% | Activity [15]: 4.84% | Activity [16]: 0.64% | Activity [17]: 0.49% | Activity [18]: 11.3% | Activity [19]: 0.46% | Activity [20]: Active
